Test results as given in the NIST ThermoML archive (doi:10.1021/je200477s).

Experiment: wn = mass fraction of the nth substance listed
Details: 101 kPa, Liquid, Pycnometric method

CCCCn1cc[n+](C)c1.COS(=O)(=O)[O-] [1-butyl-3-methylimidazolium methyl sulfate] + O
mass density [kg/m3]
Details	w1 = 0.1501	w1 = 0.2002	w1 = 0.2991	w1 = 0.4993	w1 = 0.6519	w1 = 0.8012	w1 = 0.8701	w1 = 0.9325	w1 = 1
293.15 K	1025.8	1035.9	1056.1	1100.2	1134.9	1169.4	1184.8	1198.2	1211.7
295.15 K	1025.1	1035.2	1055.2	1099	1133.5	1168	1183.4	1196.8	1210.4
297.15 K	1024.4	1034.4	1054.3	1097.7	1132.2	1166.6	1182.1	1195.5	1209.1
299.15 K	1023.7	1033.6	1053.3	1096.5	1130.7	1165.2	1180.7	1194.1	1207.7
301.15 K	1022.9	1032.8	1052.3	1095.2	1129.4	1163.8	1179.3	1192.8	1206.4
303.15 K	1022.2	1031.9	1051.3	1093.9	1128	1162.4	1177.9	1191.4	1205.1

O [water] + CCCCn1cc[n+](C)c1.COS(=O)(=O)[O-]
w2 = 0
Details	mass density [kg/m3]
293.15 K	998.3
295.15 K	997.9
297.15 K	997.4
299.15 K	996.9
301.15 K	996.3
